In patent publication US20260242362A1, “PREPARATION OF 3,4,5-TRISUBSTITUTED TRIAZOLES AND METHODS OF USING THE SAME” (University of Florida Research Foundation, Incorporated, priority 2023, published 2026):

Assays:
kappa opioid receptor [1] = target: T1, kappa opioid receptor (Homo sapiens, UniProt P41145); experiment: GTPγS binding assay (G-protein activation); type: biochemical; conditions: for EC50: 3 parameter nonlinear regression, nc = did not converge; for GTPγS Emax (% U60): relative to U69,593 = 100% Emax
Target sequence in this assay (P41145 whole entry, the tested form may be a part): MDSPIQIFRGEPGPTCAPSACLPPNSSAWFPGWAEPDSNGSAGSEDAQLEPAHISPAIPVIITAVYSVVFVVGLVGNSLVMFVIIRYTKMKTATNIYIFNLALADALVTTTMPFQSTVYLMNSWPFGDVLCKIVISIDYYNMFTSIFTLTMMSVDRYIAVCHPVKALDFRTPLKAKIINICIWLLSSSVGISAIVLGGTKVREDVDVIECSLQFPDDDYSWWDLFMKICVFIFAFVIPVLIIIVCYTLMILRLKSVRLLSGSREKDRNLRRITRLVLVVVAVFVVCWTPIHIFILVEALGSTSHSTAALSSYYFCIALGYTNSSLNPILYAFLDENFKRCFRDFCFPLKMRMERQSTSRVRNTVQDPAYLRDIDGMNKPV

kappa opioid receptor [2] = target: T1, kappa opioid receptor; experiment: PathHunter DiscoverX β-arrestin2 recruitment (enzyme fragment complementation) assay; type: cell-based; conditions: for β-arrestin2 maximum stimulation observed at 10 μM (starred Emax cells / % max at 10 uM): * compounds that did not reach plateau; for EC50: 3 parameter nonlinear regression, nc = did not converge, read-out: β-arrestin2 EC50; for β-arrestin2 Emax (% U60): relative to U69,593 = 100% Emax, ~ did not plateau at 100%
Target sequence in this assay (P41145 whole entry, the tested form may be a part): as above
Target sequence in this assay (P32121 whole entry partner, the tested form may be a part): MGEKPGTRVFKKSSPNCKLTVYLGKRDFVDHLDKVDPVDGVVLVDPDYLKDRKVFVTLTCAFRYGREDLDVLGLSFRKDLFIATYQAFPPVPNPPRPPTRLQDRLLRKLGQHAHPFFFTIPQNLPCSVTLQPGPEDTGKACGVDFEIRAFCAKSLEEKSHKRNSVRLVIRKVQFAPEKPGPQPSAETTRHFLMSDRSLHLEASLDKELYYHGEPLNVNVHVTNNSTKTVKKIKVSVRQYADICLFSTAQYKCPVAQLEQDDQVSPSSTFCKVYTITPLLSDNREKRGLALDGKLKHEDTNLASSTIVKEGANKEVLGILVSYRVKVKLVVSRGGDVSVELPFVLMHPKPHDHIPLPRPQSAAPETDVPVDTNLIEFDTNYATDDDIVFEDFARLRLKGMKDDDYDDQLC

[3] = mouse, microsomes
Description: Microsomal stability was determined using mouse hepatic microsomes and LC/MS detections over time (Zhou et al., 2013, 22).

Row | SMILES | EC50 (kappa opioid receptor [1]) [nM] | Microsomal Stability [3] | EC50 (kappa opioid receptor [2]) [nM] | β-arrestin2 Emax (% U60) (kappa opioid receptor [2]) | other results
1 | Cc1ccc(CCc2nnc(-c3ccccn3)n2-c2ccccc2)cc1C(F)(F)F |  |  |  |  | KOR potency / activity in words (SAR commentary) (kappa opioid receptor [1]): potency was completely lost
2 | Cc1ccc(/C=C/c2nnc(-c3ccccn3)n2Cc2nccs2)cc1C(F)(F)F [50 (UNC9078)] | 767 | 10.1 min |  |  | GTPγS Emax (% U60) (kappa opioid receptor [1]): 81.6 % U60; β-arrestin2 maximum stimulation observed at 10 μM (starred Emax cells / % max at 10 uM) (kappa opioid receptor [2]): 51.6 (% max at 10 uM) % U60
3 | Cc1ccc(/C=C/c2nnc(-c3nccn3C)n2Cc2ccco2)cc1C(F)(F)F [51 (UNC9012)] |  |  |  |  | GTPγS Emax (% U60) (kappa opioid receptor [1]): 76.1 % U60; β-arrestin2 maximum stimulation observed at 10 μM (starred Emax cells / % max at 10 uM) (kappa opioid receptor [2]): 17.3 (% max at 10 uM) % U60
4 | Cc1ccc(/C=C/c2nnc(-c3nccn3C)n2Cc2cccs2)cc1C(F)(F)F [52 (UNC9166)] | 349 | 12.2 min | 55800 |  | GTPγS Emax (% U60) (kappa opioid receptor [1]): 74.2 % U60; β-arrestin2 maximum stimulation observed at 10 μM (starred Emax cells / % max at 10 uM) (kappa opioid receptor [2]): 37.7 (% max at 10 uM) % U60
5 | Cc1ccc(/C=C/c2nnc(-c3nccn3C)n2Cc2nccs2)cc1C(F)(F)F [53 (UNC9081)] | 309 | 14.5 min | 1570 |  | β-arrestin2 maximum stimulation observed at 10 μM (starred Emax cells / % max at 10 uM) (kappa opioid receptor [2]): 25.9 (% max at 10 uM) % U60
6 | Cc1ccc(CCCc2nnc(-c3ccccn3)n2Cc2ccco2)cc1C(F)(F)F [Compound 3] | 812 | 1.6 |  |  | GTPγS Emax (% U60) (kappa opioid receptor [1]): 74 % U60
7 | Cc1ccc(CCc2nnc(-c3ccccn3)n2Cc2ncco2)cc1C(F)(F)F [Compound 5a] | 38 |  | 532 |  | 
8 | Cc1ccc(CCc2nnc(-c3ccccn3)n2Cc2ccsc2)cc1C(F)(F)F [Compound 6] | 12 | 1.0 min | 813 |  | 
9 | Cc1ccc(CCc2nnc(-c3ccccn3)n2Cc2nccs2)cc1C(F)(F)F [Compound 7] | 51 | 2.1 min | 3570 | 82 | GTPγS Emax (% U60) (kappa opioid receptor [1]): 63 % U60
10 | Cc1ccc(CCc2nnc(-c3ccccn3)n2Cc2ccccc2)cc1C(F)(F)F [Compound 8] |  | 0.9 min | 6340 | 180 | 
11 | Cc1ccc(CCc2nnc(-c3ccccn3)n2Cc2ccccn2)cc1C(F)(F)F [Compound 10] |  | 1.0 min | 7690 | 125 | GTPγS Emax (% U60) (kappa opioid receptor [1]): 784 % U60
12 | Cc1ccc(CCc2nnc(-c3ccccn3)n2Cc2cccnc2)cc1C(F)(F)F [Compound 11] | 70 | 1.7 min | 479 | 105 | GTPγS Emax (% U60) (kappa opioid receptor [1]): 90 % U60
13 | Cc1ccc(CCc2nnc(-c3ccccn3)n2-c2cccc3ccccc23)cc1C(F)(F)F [Compound 11a] | 2650 |  |  |  | 
14 | Cc1ccc(CCc2nnc(-c3ccccn3)n2Cc2ccncc2)cc1C(F)(F)F [Compound 12] |  | 0.9 min |  |  | GTPγS maximum stimulation observed at 10 μM (starred Emax cells) (kappa opioid receptor [1]; * compounds that did not reach plateau, 10 μM): 48* % U60; β-arrestin2 maximum stimulation observed at 10 μM (starred Emax cells / % max at 10 uM) (kappa opioid receptor [2]): 12* % U60
15 | Cc1ccc(CCc2nnc(-c3ccccn3)n2-c2ccc3ccccc3c2)cc1C(F)(F)F [Compound 12a] | 10300 |  |  |  | 
16 | Cc1ccc(CCc2nnc(-c3ccccn3)n2CC2CC2)cc1C(F)(F)F [Compound 13] |  | 0.9 min |  |  | 
17 | Cc1ccc(CCc2nnc(-c3ccccn3)n2CCc2ccccc2)cc1C(F)(F)F [Compound 13a] | 1940 |  |  |  | 
18 | Cc1ccc(CCc2nnc(-c3ccccc3)n2Cc2cccs2)cc1C(F)(F)F [Compound 14] |  | 1.8 min | > 10000 | ~100 | 
19 | Cc1ccc(CCc2nnc(-c3cccnc3)n2Cc2cccs2)cc1C(F)(F)F [Compound 15] |  | 1.0 min |  |  | GTPγS Emax (% U60) (kappa opioid receptor [1]): 85 % U60; β-arrestin2 maximum stimulation observed at 10 μM (starred Emax cells / % max at 10 uM) (kappa opioid receptor [2]): 14* % U60

Row | SMILES | EC50 (kappa opioid receptor [1]) [nM] | Microsomal Stability [3] | EC50 (kappa opioid receptor [2]) [nM] | β-arrestin2 Emax (% U60) (kappa opioid receptor [2]) | other results
20 | Cc1ccc(CCc2nnc(-c3ncccn3)n2Cc2cccs2)cc1C(F)(F)F [Compound 17] |  | 0.8 min | 2180 | 150 | 
21 | Cc1ccc(CCc2nnc(-c3ccccn3)n2CC2CCCO2)cc1C(F)(F)F (centres unmarked) [Compound 17a] | 104 |  | 5430 |  | 
22 | Cc1ccc(CCc2nnc(-c3ccncn3)n2Cc2cccs2)cc1C(F)(F)F [Compound 18] |  | 1.1 min | > 10000 |  | β-arrestin2 maximum stimulation observed at 10 μM (starred Emax cells / % max at 10 uM) (kappa opioid receptor [2]): 66* % U60
23 | Cc1ccc(CCc2nnc(-c3ncccc3C)n2Cc2cccs2)cc1C(F)(F)F [Compound 19] |  | 1.1 min | 1550 | 117 | 
24 | Cc1ccc(CCc2nnc(-c3cccc4ccccc34)n2Cc2cccs2)cc1C(F)(F)F [Compound 20] |  | 0.9 min | > 10000 |  | β-arrestin2 maximum stimulation observed at 10 μM (starred Emax cells / % max at 10 uM) (kappa opioid receptor [2]): 76* % U60
25 | Cc1ccc(CCc2nnc(-c3ccc4ccccc4c3)n2Cc2cccs2)cc1C(F)(F)F [Compound 21] |  | 1.3 min |  |  | β-arrestin2 maximum stimulation observed at 10 μM (starred Emax cells / % max at 10 uM) (kappa opioid receptor [2]): 16* % U60
26 | Cc1ccc(CCc2nnc(-c3ccc4ccccc4n3)n2Cc2cccs2)cc1C(F)(F)F [Compound 22] |  | 2.2 min | > 10000 | ~100 | 
27 | Cc1ccc(CCc2nnc(-c3cccn3C)n2Cc2cccs2)cc1C(F)(F)F [Compound 23] | 36 | 3.1 min | 1320 |  | 
28 | COc1ccc(CCc2nnc(-c3ccccn3)n2Cc2cccs2)cc1 [Compound 25] |  | 5.6 min | > 10000 | 124 | 
29 | Fc1ccc(CCc2nnc(-c3ccccn3)n2Cc2cccs2)cc1 [Compound 26] | 288 | 3.1 min | 3020 | 75 | GTPγS Emax (% U60) (kappa opioid receptor [1]): 92 % U60
30 | Clc1ccc(CCc2nnc(-c3ccccn3)n2Cc2cccs2)cc1 [Compound 27] | 35 | 3.3 min | 3740 | 102 | GTPγS Emax (% U60) (kappa opioid receptor [1]): 93 % U60
31 | Brc1ccc(CCc2nnc(-c3ccccn3)n2Cc2cccs2)cc1 [Compound 28] |  | 4.6 min | 963 | 106 | GTPγS Emax (% U60) (kappa opioid receptor [1]): 96 % U60
32 | FC(F)(F)c1ccccc1CCc1nnc(-c2ccccn2)n1Cc1cccs1 [Compound 31] |  | 3.0 min | > 10000 | 44 | 
33 | c1ccc(-c2nnc(CCc3cccc4ccccc34)n2Cc2cccs2)nc1 [Compound 35] |  | 1 min | > 10000 | 67 | 
34 | c1ccc(-c2nnc(CCc3ccc4ccccc4c3)n2Cc2cccs2)nc1 [Compound 36] |  | 2.4 min |  |  | 
35 | c1ccc(-c2nnc(C3CCc4ccccc4C3)n2Cc2cccs2)nc1 (centres unmarked) [Compound 37] |  | 13.1 min |  |  | 
36 | Cc1cc(CCc2nnc(-c3ccccn3)n2Cc2cccs2)ccc1C(F)(F)F [Compound 39a] | 3.1 |  |  |  | 
37 | FC(F)(Cc1ccccc1)c1nnc(-c2ccccn2)n1Cc1ccco1 [Compound 44] |  |  |  |  | KOR potency / activity in words (SAR commentary) (kappa opioid receptor [1]): completely inactive
38 | OC(Cc1nnc(-c2ccccn2)n1Cc1ccco1)c1ccccc1 (centres unmarked) [Compound 45] |  | 20.7 min |  |  | 
